Experimental data as given in ChEMBL document CHEMBL3714742, “Pyrimido (4,5-b) indole derivatives” (2003).
The source made the active and inactive calls. The rule behind the calls is not given here.

What was measured:
[1] = system: Mus musculus; assay: Inhibition of anti-CD3 antibody-induced IL4 production in Balb/c mouse dosed intravenously 5 mins before anti-CD3 antibody injection and measured 2 hrs post-challenge by ELISA; type: functional, organism-based
[2] = system: Mus musculus; assay: Inhibition of anti-CD3 antibody-induced IL2 production in Balb/c mouse dosed intravenously 5 mins before anti-CD3 antibody injection and measured 2 hrs post-challenge by ELISA; type: functional, organism-based
[3] = system: Mus musculus; assay: Inhibition of anti-CD3 antibody-induced IFNgamma production in Balb/c mouse dosed intravenously 5 mins before anti-CD3 antibody injection and measured 2 hrs post-challenge by ELISA; type: functional, organism-based
[4] = target: T1, Dual specificity mitogen-activated protein kinase kinase 7 (Homo sapiens, UniProt O14733); assay: Inhibition of GST-tagged human MKK7 expressed in Escherichia coli (BL21(DE3) pLysS) co-expressing human MEKK catalytic domain using biotinylated and GST-tagged rat GST-KN-SAPKalpha substrate incubated for 1 hr by time-resolved fluorescence based assay
T1 sequence (O14733 whole entry): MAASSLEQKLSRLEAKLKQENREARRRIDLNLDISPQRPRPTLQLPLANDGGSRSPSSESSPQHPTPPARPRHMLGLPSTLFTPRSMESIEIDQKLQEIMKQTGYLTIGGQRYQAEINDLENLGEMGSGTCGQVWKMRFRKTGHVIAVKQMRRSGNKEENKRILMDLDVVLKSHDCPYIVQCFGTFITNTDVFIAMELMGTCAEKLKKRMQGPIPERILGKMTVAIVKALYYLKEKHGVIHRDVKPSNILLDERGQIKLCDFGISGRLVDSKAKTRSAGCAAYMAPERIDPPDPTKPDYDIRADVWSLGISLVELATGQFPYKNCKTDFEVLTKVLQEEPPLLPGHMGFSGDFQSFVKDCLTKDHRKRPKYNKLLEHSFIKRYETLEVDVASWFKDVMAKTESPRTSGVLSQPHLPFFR

## CN(c1nc(N)nc2[nH]c3ccc(O)cc3c12)C1CCCCC1
[1]
  inhibition: Active
[2]
  inhibition: Active
[3]
  inhibition: Active
[4]
  IC50: < 1000 nM

## Nc1nc(N2CCC(C(=O)O)CC2)c2c(n1)[nH]c1ccc(O)cc12
[1]
  inhibition: Active
[2]
  inhibition: Active
[3]
  inhibition: Active
[4]
  IC50: 1000 nM

## COc1cc2[nH]c3nc(N)nc(N4CCOCC4)c3c2cc1OC
[1]
  inhibition: Active
[2]
  inhibition: Active
[3]
  inhibition: Active
[4]
  IC50: 1000 nM

## Cc1nc(N2CCOCC2)c2c(n1)[nH]c1ccc(O)cc12
[1]
  inhibition: Active
[2]
  inhibition: Active
[3]
  inhibition: Active
[4]
  IC50: 1000 nM

## Cc1nc(N2CCC(O)CC2)c2c(n1)[nH]c1ccc(O)cc12
[1]
  inhibition: Active
[2]
  inhibition: Active
[3]
  inhibition: Active
[4]
  IC50: < 1000 nM

## Oc1ccc2[nH]c3ncnc(NCCc4c[nH]cn4)c3c2c1
[1]
  inhibition: Active
[2]
  inhibition: Active
[3]
  inhibition: Active
[4]
  IC50: < 1000 nM

## COC1CCN(c2nc(N)nc3[nH]c4ccc(O)cc4c23)CC1
[1]
  inhibition: Active
[2]
  inhibition: Active
[3]
  inhibition: Active
[4]
  IC50: < 1000 nM

## Cc1nc(NC(C)CO)c2c(n1)[nH]c1ccc(OCc3ccccc3)cc12 (centres undefined)
[1]
  inhibition: Active
[2]
  inhibition: Active
[3]
  inhibition: Active
[4]
  IC50: < 1000 nM

## NCCCNc1ncnc2[nH]c3ccc(C(N)=O)cc3c12
[1]
  inhibition: Active
[2]
  inhibition: Active
[3]
  inhibition: Active
[4]
  IC50: < 1000 nM

## Cc1nc(NCCO)c2c(n1)[nH]c1ccc(O)cc12
[1]
  inhibition: Active
[2]
  inhibition: Active
[3]
  inhibition: Active
[4]
  IC50: 1000 nM

## NCCNc1ncnc2[nH]c3ccc(C(N)=O)cc3c12
[1]
  inhibition: Active
[2]
  inhibition: Active
[3]
  inhibition: Active
[4]
  IC50: < 1000 nM

## NC(=O)c1ccc2[nH]c3ncnc(N4CCCCC4)c3c2c1
[1]
  inhibition: Active
[2]
  inhibition: Active
[3]
  inhibition: Active
[4]
  IC50: < 1000 nM

## Oc1ccc2[nH]c3ncnc(N4CCC(O)CC4)c3c2c1
[1]
  inhibition: Active
[2]
  inhibition: Active
[3]
  inhibition: Active
[4]
  IC50: < 1000 nM

## Nc1nc(NCCN2CCCC2)c2c(n1)[nH]c1ccc(O)cc12
[1]
  inhibition: Active
[2]
  inhibition: Active
[3]
  inhibition: Active
[4]
  IC50: > 10000 nM

## COC(=O)c1ccc2[nH]c3nc(N)nc(N4CCCCC4)c3c2c1
[1]
  inhibition: Active
[2]
  inhibition: Active
[3]
  inhibition: Active
[4]
  IC50: < 1000 nM

## NC(=O)c1ccc2[nH]c3ncnc(N4CCCCCC4)c3c2c1
[1]
  inhibition: Active
[2]
  inhibition: Active
[3]
  inhibition: Active
[4]
  IC50: < 1000 nM

## OCCC1CCCCN1c1ncnc2[nH]c3ccc(O)cc3c12 (centres undefined)
[1]
  inhibition: Active
[2]
  inhibition: Active
[3]
  inhibition: Active
[4]
  IC50: < 1000 nM

## CC1CCCCN1c1ncnc2[nH]c3ccc(O)cc3c12 (centres undefined)
[1]
  inhibition: Active
[2]
  inhibition: Active
[3]
  inhibition: Active
[4]
  IC50: < 1000 nM

## Oc1ccc2[nH]c3ncnc(N4CCC(O)C4)c3c2c1 (centres undefined)
[1]
  inhibition: Active
[2]
  inhibition: Active
[3]
  inhibition: Active
[4]
  IC50: < 1000 nM

## OCC1CCN(c2ncnc3[nH]c4ccc(O)cc4c23)CC1
[1]
  inhibition: Active
[2]
  inhibition: Active
[3]
  inhibition: Active
[4]
  IC50: < 1000 nM

## CC1CCCN(c2nc(N)nc3[nH]c4ccc(O)cc4c23)C1 (centres undefined)
[1]
  inhibition: Active
[2]
  inhibition: Active
[3]
  inhibition: Active
[4]
  IC50: < 1000 nM

## Oc1ccc2[nH]c3ncnc(NC4CCCCCC4)c3c2c1
[1]
  inhibition: Active
[2]
  inhibition: Active
[3]
  inhibition: Active
[4]
  IC50: < 1000 nM

## Nc1nc(N2CCC(N3CCCC3)CC2)c2c(n1)[nH]c1ccc(O)cc12
[1]
  inhibition: Active
[2]
  inhibition: Active
[3]
  inhibition: Active
[4]
  IC50: < 1000 nM

## Oc1ccc2[nH]c3ncnc(N4CCOCC4)c3c2c1
[1]
  inhibition: Active
[2]
  inhibition: Active
[3]
  inhibition: Active
[4]
  IC50: < 1000 nM

## Nc1nc(N2CCOCC2)c2c(n1)[nH]c1ccc(O)cc12
[1]
  inhibition: Active
[2]
  inhibition: Active
[3]
  inhibition: Active
[4]
  IC50: < 1000 nM

## CC1CCN(c2ncnc3[nH]c4ccc(O)cc4c23)CC1
[1]
  inhibition: Active
[2]
  inhibition: Active
[3]
  inhibition: Active
[4]
  IC50: < 1000 nM

## Nc1nc(N(Cc2ccccc2)Cc2ccccc2)c2c(n1)[nH]c1ccc(O)cc12
[1]
  inhibition: Active
[2]
  inhibition: Active
[3]
  inhibition: Active
[4]
  IC50: > 10000 nM

## CN(CCO)c1nc(N)nc2[nH]c3ccc(O)cc3c12
[1]
  inhibition: Active
[2]
  inhibition: Active
[3]
  inhibition: Active
[4]
  IC50: < 1000 nM

## Nc1nc(N2CCCCC2)c2c(n1)[nH]c1ccc(O)cc12
[1]
  inhibition: Active
[2]
  inhibition: Active
[3]
  inhibition: Active
[4]
  IC50: < 1000 nM

## Nc1nc(NC2CCCCC2)c2c(n1)[nH]c1ccc(O)cc12
[1]
  inhibition: Active
[2]
  inhibition: Active
[3]
  inhibition: Active
[4]
  IC50: < 1000 nM

## Nc1nc(NC2CCCCCC2)c2c(n1)[nH]c1ccc(O)cc12
[1]
  inhibition: Active
[2]
  inhibition: Active
[3]
  inhibition: Active
[4]
  IC50: < 1000 nM

## COC(=O)c1ccc2[nH]c3nc(C)nc(N4CCCCC4)c3c2c1
[1]
  inhibition: Active
[2]
  inhibition: Active
[3]
  inhibition: Active
[4]
  IC50: < 1000 nM

## CC1CC(C)CN(c2ncnc3[nH]c4ccc(C(N)=O)cc4c23)C1 (centres undefined)
[1]
  inhibition: Active
[2]
  inhibition: Active
[3]
  inhibition: Active
[4]
  IC50: < 1000 nM

## Cc1nc(N2CCCCC2C)c2c(n1)[nH]c1ccc(O)cc12 (centres undefined)
[1]
  inhibition: Active
[2]
  inhibition: Active
[3]
  inhibition: Active
[4]
  IC50: < 1000 nM

## O=C(O)CCCCCN1CCN(c2ncnc3[nH]c4ccc(O)cc4c23)CC1
[1]
  inhibition: Active
[2]
  inhibition: Active
[3]
  inhibition: Active
[4]
  IC50: 1000 nM

## CC1CCN(c2nc(N)nc3[nH]c4ccc(O)cc4c23)CC1
[1]
  inhibition: Active
[2]
  inhibition: Active
[3]
  inhibition: Active
[4]
  IC50: < 1000 nM

## CCCN(CCC)c1ncnc2[nH]c3ccc(C(N)=O)cc3c12
[1]
  inhibition: Active
[2]
  inhibition: Active
[3]
  inhibition: Active
[4]
  IC50: < 1000 nM

## Nc1nc(N2CCC(Cc3ccccc3)CC2)c2c(n1)[nH]c1ccc(O)cc12
[1]
  inhibition: Active
[2]
  inhibition: Active
[3]
  inhibition: Active
[4]
  IC50: 1000 nM

## NC1CCCN(c2ncnc3[nH]c4ccc(O)cc4c23)C1 (centres undefined)
[1]
  inhibition: Active
[2]
  inhibition: Active
[3]
  inhibition: Active
[4]
  IC50: < 1000 nM

## C[C@@H](CO)Nc1ncnc2[nH]c3ccc(O)cc3c12
[1]
  inhibition: Active
[2]
  inhibition: Active
[3]
  inhibition: Active
[4]
  IC50: < 1000 nM

## CC(C)(C)OC(=O)NCCCNc1ncnc2[nH]c3ccc(C(N)=O)cc3c12
[1]
  inhibition: Active
[2]
  inhibition: Active
[3]
  inhibition: Active
[4]
  IC50: < 1000 nM

## NC(=O)c1ccc2[nH]c3ncnc(N4CCC(C(=O)O)CC4)c3c2c1
[1]
  inhibition: Active
[2]
  inhibition: Active
[3]
  inhibition: Active
[4]
  IC50: < 1000 nM

## Nc1nc(NC2CCCC2)c2c(n1)[nH]c1ccc(O)cc12
[1]
  inhibition: Active
[2]
  inhibition: Active
[3]
  inhibition: Active
[4]
  IC50: < 1000 nM

## OCC1(Nc2ncnc3[nH]c4ccc(O)cc4c23)CCCC1
[1]
  inhibition: Active
[2]
  inhibition: Active
[3]
  inhibition: Active
[4]
  IC50: < 1000 nM

## N[C@H]1CCN(c2ncnc3[nH]c4ccc(O)cc4c23)C1
[1]
  inhibition: Active
[2]
  inhibition: Active
[3]
  inhibition: Active
[4]
  IC50: < 1000 nM

## Cc1nc(N2CCCCCC2)c2c(n1)[nH]c1ccc(O)cc12
[1]
  inhibition: Active
[2]
  inhibition: Active
[3]
  inhibition: Active
[4]
  IC50: < 1000 nM

## OC[C@@H]1CCCN1c1ncnc2[nH]c3ccc(O)cc3c12
[1]
  inhibition: Active
[2]
  inhibition: Active
[3]
  inhibition: Active
[4]
  IC50: < 1000 nM

## Oc1ccc2[nH]c3ncnc(N4CCNCC4)c3c2c1
[1]
  inhibition: Active
[2]
  inhibition: Active
[3]
  inhibition: Active
[4]
  IC50: < 1000 nM

## CCN(CCO)c1ncnc2[nH]c3ccc(O)cc3c12
[1]
  inhibition: Active
[2]
  inhibition: Active
[3]
  inhibition: Active
[4]
  IC50: < 1000 nM

## Nc1nc(N2CCCCC2)c2c(n1)[nH]c1ccc(C(=O)O)cc12
[1]
  inhibition: Active
[2]
  inhibition: Active
[3]
  inhibition: Active
[4]
  IC50: < 1000 nM

## CN(CCO)c1ncnc2[nH]c3ccc(O)cc3c12
[1]
  inhibition: Active
[2]
  inhibition: Active
[3]
  inhibition: Active
[4]
  IC50: < 1000 nM
